Literature values, collected in US20250367153A1, “COMPOSITION AND APPLICATION THEREOF” (priority 2024, published 2025).

How the values were obtained:
[1] = test system: rat, mouse, and guinea pig

O=CC=Cc1ccccc1 [cinnamaldehyde]
LD50 [1]: 3400 mg/kg

OCC=Cc1ccccc1 [cinnamyl alcohol]
LD50 [1]: 2675 mg/kg

NCC(=O)O [glycine]
NOAEL (no-observed-adverse-effect level) (rat): at least 2000 mg/kg/day

phosphatidylserine
acute oral LD50 (rats and dogs; acute oral): greater than 5 g/kg bw
NOAEL (rats and dogs; rats and dogs): 1,000 mg/kg bw/day
